Measured values published in article PMC2959128 (Journal of the American Chemical Society, 2010).

Molecular target: T1, phosphopantetheinyl transferase Sfp (Bacillus subtilis, UniProt P39135)
T1 sequence (P39135 1-224): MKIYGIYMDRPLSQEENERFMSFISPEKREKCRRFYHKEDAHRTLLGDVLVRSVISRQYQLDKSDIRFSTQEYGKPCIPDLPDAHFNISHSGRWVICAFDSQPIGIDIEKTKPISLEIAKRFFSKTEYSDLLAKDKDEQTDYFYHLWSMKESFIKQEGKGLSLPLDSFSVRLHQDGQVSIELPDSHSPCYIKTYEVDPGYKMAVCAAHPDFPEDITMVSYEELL
Assay: acyl-phosphopantetheinyl transfer to apo-ACP
Type: biochemical
Details: DEBS apo-ACP6 as acceptor

CC[C@@H](O)[C@@H](C)C(=O)SCCNC(=O)CCNC(=O)[C@H](O)C(C)(C)COP(=O)(O)OP(=O)(O)OC[C@H]1O[C@@H](n2cnc3c(N)ncnc32)[C@H](O)[C@@H]1OP(=O)(O)O [2a-SCoA]
acyl-phosphopantetheinyl transfer to apo-ACP; LC-ESI(+)-MS: from DEBS apo-ACP6 using the phosphopantetheinyl transferase Sfp

CC/C=C(\C)C(=O)SCCNC(=O)CCNC(=O)[C@H](O)C(C)(C)COP(=O)(O)OP(=O)(O)OC[C@H]1O[C@@H](n2cnc3c(N)ncnc32)[C@H](O)[C@@H]1OP(=O)(O)O [3-SCoA]
acyl-phosphopantetheinyl transfer to apo-ACP; LC-ESI(+)-MS: from DEBS apo-ACP6 using the phosphopantetheinyl transferase Sfp
